According to patent US6737409B2, “Dolastatin 10 derivatives” (Hoffmann-La Roche Inc., priority 2001, dated 2004):

System: HCT 116
Test: Antiproliferative activity assay (WST-8)
Type: cell-based
Conditions: Homo sapiens, HCT-116, 96 h, read-out: HCT 116 IC50 (nM)
Description: Antiproliferative activity assay was carried out as follows. A single suspension of tumor cells was inoculated to the serially diluted 96-well microtestplate. Then the testplate was incubated in the 5% CO2 ambience at 37° C. for 4 days (2-3×10^3 cells/well). The degree of cell growth in a monolayer was measured by using WST-8 (Dojindo, Japan). IC50 values of drugs against tumor cells were calculated as the concentration of drug yielding 50% OD of the control growth.

Q: How did the IC50 turn out when `CCNC(=O)Oc1cccc(CCNC(=O)C(C)C(SC)C2CCCN2C(=O)CC(OC)C(C(C)CC)N(C)C(=O)C(NC(=O)C(C(C)C)N(C)C)C(C)C)c1` (stereo not drawn) [Ethyl-carbamic acid 3-(2-{3-[1-(4-{[2-(2-dimethylamino-3-methyl-butyrylamino)-3-methyl-butyryl]-methyl-amino}-3-methoxy-5-methyl-heptanoyl)-pyrrolidin-2-yl]-2-methyl-3-methylsulfanyl-propionylamino}-ethyl)-phenyl ester] was run?
A: Its IC50 is 0.57 nM.

Same assay, conditions: Homo sapiens, HCT-116, 96 h; incubated 4 days, WST-8; concentration of drug yielding 50% OD of the control growth; read-out: HCT 116 IC50

Q: With `CCC(C)C(C(CC(=O)N1CCCC1C(CC(=O)NCCc1ccccc1)Sc1cccc(O)c1)OC)N(C)C(=O)C(NC(=O)C(C(C)C)N(C)C)C(C)C` (stereo not drawn) [N-{1-[(1-sec-Butyl-4-{2-[1-(3-hydroxy-phenylsulfanyl)-2-phenethylcarbamoyl-ethyl]-pyrrolidin-1-yl}-2-methoxy-4-oxo-butyl)-methyl-carbamoyl]-2-methyl-propyl}-2-dimethylamino-3-methyl-butyramide] as the compound, how does the IC50 read?
A: The IC50 was 0.3 nM.

Q: For `CCC(C)C(C(CC(=O)N1CCCC1C(CC(=O)N(C)CCc1ccccc1)SC)OC)N(C)C(=O)C(NC(=O)C(C(C)C)N(C)C)C(C)C` (stereo not drawn) [N-{1-[(1-sec-Butyl-2-methoxy-4-{2-[2-(methyl-phenethyl-carbamoyl)-1-methylsulfanyl-ethyl]-pyrrolidin-1-yl}-4-oxo-butyl)-methyl-carbamoyl]-2-methyl-propyl}-2-dimethylamino-3-methyl-butyramide], which IC50 is on record?
A: Its IC50 is 0.87 nM.

Q: For `CCC(C)C(C(CC(=O)N1CCCC1C(CC(=O)NCCc1ccccc1)Sc1ccc(NC(C)=O)cc1)OC)N(C)C(=O)C(NC(=O)C(C(C)C)N(C)C)C(C)C` (stereo not drawn) [N-{1-[(4-{2-[1-(4-Acetylamino-phenylsulfanyl)-2-phenethylcarbamoyl-ethyl]-pyrrolidin-1-yl}-1-sec-butyl-2-methoxy-4-oxo-butyl)-methyl-carbamoyl]-2-methyl-propyl}-2-dimethylamino-3-methyl-butyramide], which IC50 is on record?
A: Its IC50 is 0.98 nM.

Q: Which IC50 does the source give for `CCC(C)C(C(CC(=O)N1CCCC1C(CC(=O)NCCc1ccccc1)SCCO)OC)N(C)C(=O)C(NC(=O)C(C(C)C)N(C)C)C(C)C` (stereo not drawn) [N-{1-[(1-sec-Butyl-4-{2-[1-(2-hydroxy-ethylsulfanyl)-2-phenethylcarbamoyl-ethyl]-pyrrolidin-1-yl}-2-methoxy-4-oxo-butyl)-methyl-carbamoyl]-2-methyl-propyl}-2-dimethylamino-3-methyl-butyramide] here?
A: The IC50 was 0.39 nM.

Q: With `CCC(C)C(C(CC(=O)N1CCCC1C(CC(=O)NCCc1cccs1)SC)OC)N(C)C(=O)C(NC(=O)C(C(C)C)N(C)C)C(C)C` (stereo not drawn) [N-{1-[(1-sec-Butyl-2-methoxy-4-{2-[1-methylsulfanyl-2-(2-thiophen-2-yl-ethylcarbamoyl)-ethyl]-pyrrolidin-1-yl}-4-oxo-butyl)-methyl-carbamoyl]-2-methyl-propyl}-2-dimethylamino-3-methyl-butyramide] as the compound, how does the IC50 read?
A: Its IC50 is 0.5 nM.

Q: Which IC50 does the source give for `CCC(C)C(C(CC(=O)N1CCCC1C(CC(=O)NCCc1ccccn1)SC)OC)N(C)C(=O)C(NC(=O)C(C(C)C)N(C)C)C(C)C` (stereo not drawn) [N-{1-[(1-sec-Butyl-2-methoxy-4-{2-[1-methylsulfanyl-2-(2-pyridin-2-yl-ethylcarbamoyl)-ethyl]-pyrrolidin-1-yl}-4-oxo-butyl)-methyl-carbamoyl]-2-methyl-propyl}-2-dimethylamino-3-methyl-butyramide] here?
A: Its IC50 is 0.9 nM.

Q: With `CCC(C)C(C(CC(=O)N1CCCC1C(SC)C(C)C(=O)NCCc1ccccc1)OC)N(C)C(=O)C(NC(=O)C(C(C)C)N(C)C)C(C)C` (stereo not drawn) [N-[1-({1-sec-Butyl-2-methoxy-4-[2-(1-methylsulfanyl-2-phenethylcarbamoyl-propyl)-pyrrolidin-1-yl]-4-oxo-butyl}-methyl-carbamoyl)-2-methyl-propyl]-2-dimethylamino-3-methyl-butyramide] as the compound, how does the IC50 read?
A: The IC50 was 0.04 nM.

Q: With `CCC(C)C(C(CC(=O)N1CCCC1C(CC(=O)NCCc1ccccc1O)SC)OC)N(C)C(=O)C(NC(=O)C(C(C)C)N(C)C)C(C)C` (stereo not drawn) [N-(1-{[1-sec-Butyl-4-(2-{2-[2-(2-hydroxy-phenyl)-ethylcarbamoyl]-1-methylsulfanyl-ethyl}-pyrrolidin-1-yl)-2-methoxy-4-oxo-butyl]-methyl-carbamoyl}-2-methyl-propyl)-2-dimethylamino-3-methyl-butyramide] as the compound, how does the IC50 read?
A: Its IC50 is 0.64 nM.

Q: For `CCC(C)C(C(CC(=O)N1CCCC1[C@@H](CC(=O)NCCc1ccccc1)Sc1ccc(O)cc1)OC)N(C)C(=O)C(NC(=O)C(C(C)C)N(C)C)C(C)C` (stereo partly drawn) [N-{1-[(1-sec-Butyl-4-{2-[1-(R)-(4-hydroxy-phenylsulfanyl)-2-phenethylcarbamoyl-ethyl]-pyrrolidin-1-yl}-2-methoxy-4-oxo-butyl)-methyl-carbamoyl]-2-methyl-propyl}-2-dimethylamino-3-methyl-butyramide], which IC50 is on record?
A: Its IC50 is 0.6 nM.

Q: How did the IC50 turn out when `CCC(C)C(C(CC(=O)N1CCCC1C(CC(=O)NCCc1cccc(O)c1)SC)OC)N(C)C(=O)C(NC(=O)C(C(C)C)N(C)C)C(C)C` (stereo not drawn) [N-(1-{[1-sec-Butyl-4-(2-{2-[2-(3-hydroxy-phenyl)-ethylcarbamoyl]-1-methylsulfanyl-ethyl}-pyrrolidin-1-yl)-2-methoxy-4-oxo-butyl]-methyl-carbamoyl}-2-methyl-propyl)-2-dimethylamino-3-methyl-butyramide] was run?
A: Its IC50 is 0.26 nM.

Q: With `CCC(C)C(C(CC(=O)N1CCCC1C(CC(=O)NCCc1ccccc1)SCc1ccccc1)OC)N(C)C(=O)C(NC(=O)C(C(C)C)N(C)C)C(C)C` (stereo not drawn) [N-[1-({4-[2-(1-Benzylsulfanyl-2-phenethylcarbamoyl-ethyl)-pyrrolidin-1-yl]-1-sec-butyl-2-methoxy-4-oxo-butyl}-methyl-carbamoyl)-2-methyl-propyl]-2-dimethylamino-3-methyl-butyramide] as the compound, how does the IC50 read?
A: The IC50 was 0.52 nM.

Q: How did the IC50 turn out when `CCC(C)C(C(CC(=O)N1CCCC1C(CC(=O)NCCc1ccccc1)S(C)(=O)=O)OC)N(C)C(=O)C(NC(=O)C(C(C)C)N(C)C)C(C)C` (stereo not drawn) [N-[1-({1-sec-Butyl-4-[2-(1-methanesulfonyl-2-phenethylcarbamoyl-ethyl)-pyrrolidin-1-yl]-2-methoxy-4-oxo-butyl}-methyl-carbamoyl)-2-methyl-propyl]-2-dimethylamino-3-methyl-butyramide] was run?
A: The IC50 was 0.44 nM.

Q: Which IC50 does the source give for `CCC(C)C(C(CC(=O)N1CCCC1C(CC(=O)NCCc1cccc(O)c1)SCC(=O)N(C)C)OC)N(C)C(=O)C(NC(=O)C(C(C)C)N(C)C)C(C)C` (stereo not drawn) [N-(1-{[1-sec-Butyl-4-(2-{1-dimethylcarbamoylmethylsulfanyl-2-[2-(3-hydroxy-phenyl)-ethylcarbamoyl]-ethyl}-pyrrolidin-1-yl)-2-methoxy-4-oxo-butyl]-methyl-carbamoyl}-2-methyl-propyl)-2-dimethylamino-3-methyl-butyramide] here?
A: Its IC50 is 1.8 nM.

Q: For `CCC(C)C(C(CC(=O)N1CCCC1C(CC(=O)NCCc1ccc(OC)c(OC)c1)SC)OC)N(C)C(=O)C(NC(=O)C(C(C)C)N(C)C)C(C)C` (stereo not drawn) [N-(1-{[1-sec-Butyl-4-(2-{2-[2-(3,4-dimethoxy-phenyl)-ethylcarbamoyl]-1-methylsulfanyl-ethyl}-pyrrolidin-1-yl)-2-methoxy-4-oxo-butyl]-methyl-carbamoyl}-2-methyl-propyl)-2-dimethylamino-3-methyl-butyramide], which IC50 is on record?
A: Its IC50 is 0.91 nM.

Q: `CCC(C)C(C(CC(=O)N1CCCC1C(CC(=O)NCCc1ccc(O)cc1)SC)OC)N(C)C(=O)C(NC(=O)C(C(C)C)N(C)C)C(C)C` (stereo not drawn) [N-(1-{[1-sec-Butyl-4-(2-{2-[2-(4-hydroxy-phenyl)-ethylcarbamoyl]-1-methylsulfanyl-ethyl}-pyrrolidin-1-yl)-2-methoxy-4-oxo-butyl]-methyl-carbamoyl}-2-methyl-propyl)-2-dimethylamino-3-methyl-butyramide] was tested. Which IC50 did it give?
A: The IC50 was 0.6 nM.

Q: For `CCSC(CC(=O)NCCc1ccccc1)C1CCCN1C(=O)CC(OC)C(C(C)CC)N(C)C(=O)C(NC(=O)C(C(C)C)N(C)C)C(C)C` (stereo not drawn) [N-[1-({1-sec-Butyl-4-[2-(1-ethylsulfanyl-2-phenethylcarbamoyl-ethyl)-pyrrolidin-1-yl]-2-methoxy-4-oxo-butyl}-methyl-carbamoyl)-2-methyl-propyl]-2-dimethylamino-3-methyl-butyramide], which IC50 is on record?
A: Its IC50 is 0.78 nM.

Q: With `CCC(C)C(C(CC(=O)N1CCCC1C(CC(=O)NCCc1cccnc1)SC)OC)N(C)C(=O)C(NC(=O)C(C(C)C)N(C)C)C(C)C` (stereo not drawn) [N-{1-[(1-sec-Butyl-2-methoxy-4-{2-[1-methylsulfanyl-2-(2-pyridin-3-yl-ethylcarbamoyl)-ethyl]-pyrrolidin-1-yl}-4-oxo-butyl)-methyl-carbamoyl]-2-methyl-propyl}-2-dimethylamino-3-methyl-butyramide] as the compound, how does the IC50 read?
A: The IC50 was 0.91 nM.

Q: How did the IC50 turn out when `CCC(C)C(C(CC(=O)N1CCCC1[C@@H](CC(=O)NCCc1ccccc1)SC(C)(C)C)OC)N(C)C(=O)C(NC(=O)C(C(C)C)N(C)C)C(C)C` (stereo partly drawn) [N-[1-({1-sec-Butyl-4-[2-(1-(R)-tert-butylsulfanyl-2-phenethylcarbamoyl-ethyl)-pyrrolidin-1-yl]-2-methoxy-4-oxo-butyl}-methyl-carbamoyl)-2-methyl-propyl]-2-dimethylamino-3-methyl-butyramide] was run?
A: The IC50 was 0.04 nM.

Q: Which IC50 does the source give for `C=CCSC(CC(=O)NCCc1ccccc1)C1CCCN1C(=O)CC(OC)C(C(C)CC)N(C)C(=O)C(NC(=O)C(C(C)C)N(C)C)C(C)C` (stereo not drawn) [N-[1-({4-[2-(1-Allylsulfanyl-2-phenethylcarbamoyl-ethyl)-pyrrolidin-1-yl]-1-sec-butyl-2-methoxy-4-oxo-butyl}-methyl-carbamoyl)-2-methyl-propyl]-2-dimethylamino-3-methyl-butyramide] here?
A: The IC50 was 0.55 nM.

Same assay, conditions: incubated 4 days, WST-8; concentration of drug yielding 50% OD of the control growth; read-out: HCT 116 IC50

Q: Which IC50 does the source give for `CCC(C)C(C(CC(=O)N1CCCC1C(CC(=O)NCCc1ccccc1)Sc1ccccc1)OC)N(C)C(=O)C(NC(=O)C(NC)C(C)C)C(C)C` (stereo not drawn) [N-[-({1-sec-Butyl-2-methoxy-4-oxo-4-[2-(2-phenethylcarbamoyl-1-phenylsulfanyl-ethyl)-pyrrolidin-1-yl]-butyl}-methyl-carbamoyl)-2-methyl-propyl]-3-methyl-2-methylamino-butyramide] here?
A: The IC50 was 0.87 nM.
